In this experiment the target is RORC2 ligand binding domain (6-His-RORC2 LBD) (Homo sapiens (Human), UniProt P51449). Description: Co-activator recruitment by TR-FRET. Format: biochemical. The settings on record: 6-His-RORC2 LBD / SRC1-2 coactivator peptide, Table 1. (In general: Time-resolved FRET reads energy transfer from a long-lived donor to a nearby acceptor.)
Chain of RORC2 ligand binding domain (6-His-RORC2 LBD) (P51449 269-508): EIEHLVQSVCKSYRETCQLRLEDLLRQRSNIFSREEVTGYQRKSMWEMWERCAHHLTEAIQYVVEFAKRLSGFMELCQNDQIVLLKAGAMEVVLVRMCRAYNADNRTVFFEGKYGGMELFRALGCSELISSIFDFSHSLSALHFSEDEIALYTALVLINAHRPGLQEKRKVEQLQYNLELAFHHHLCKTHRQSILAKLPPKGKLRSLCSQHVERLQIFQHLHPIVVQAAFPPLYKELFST

As usually defined, the IC50 is the concentration that inhibits the measured activity by half. Read a low IC50 as inhibition by little substance. `Cc1c(NC(=O)c2cc(O)cc(C#N)c2)cnc2c1c([C@@H]1CCN(C(=O)C3CCCC3)C(C)(C)C1)cn2C` [Example 64, (R)-3-cyano-N-(3-(1-(cyclopentanecarbonyl)-2,2-dimethylpiperidin-4-yl)-1,4-dimethyl-1H-pyrrolo[2,3-b]pyridin-5-yl)-5-hydroxybenzamide] yielded an IC50 of 0.0418 µM.
The result for `Cn1cc([C@@H]2CCN(C(=O)C3CCCC3)C(C)(C)C2)c2c(C(F)(F)F)c(NC(=O)c3cccc(C#N)c3)cnc21` [Example 65, (R)-3-cyano-N-(3-(1-(cyclopentanecarbonyl)-2,2-dimethylpiperidin-4-yl)-1-methyl-4-(trifluoromethyl)-1H-pyrrolo[2,3-b]pyridin-5-yl)benzamide] reads 0.0057 µM; that for `Cc1c(NC(=O)c2cccc(C#N)c2)cnc2c1c([C@@H]1CCN(C(=O)C[C@@H](O)C(F)(F)F)C(C)(C)C1)cn2C` [Example 73, 3-cyano-N-(3-((R)-2,2-dimethyl-1-((R)-4,4,4-trifluoro-3-hydroxybutanoyl)piperidin-4-yl)-1,4-dimethyl-1H-pyrrolo[2,3-b]pyridin-5-yl)benzamide], 0.0226 µM.
The molecule `Cc1c(NC(=O)c2cccc(C#N)c2)cnc2c1c([C@@H]1CCN(C(=O)CC3CCCC3)C(C)(C)C1)cn2C` [Example 74, (R)-3-cyano-N-(3-(1-(2-cyclopentylacetyl)-2,2-dimethylpiperidin-4-yl)-1,4-dimethyl-1H-pyrrolo[2,3-b]pyridin-5-yl)benzamide] came in with an IC50 of 0.0062 µM.
To `Cc1c(NC(=O)c2cccc(C#N)c2)cnc2c1c([C@@H]1CCN(C(=O)CC3CCCCC3)C(C)(C)C1)cn2C` [Example 75, (R)-3-cyano-N-(3-(1-(2-cyclohexylacetyl)-2,2-dimethylpiperidin-4-yl)-1,4-dimethyl-1H-pyrrolo[2,3-b]pyridin-5-yl)benzamide] belongs 0.0073 µM.
To `Cc1c(NC(=O)c2cccc(C#N)c2)cnc2c1c([C@@H]1CCN(C(=O)CC3CCC3)C(C)(C)C1)cn2C` [Example 76, (R)-3-cyano-N-(3-(1-(2-cyclobutylacetyl)-2,2-dimethylpiperidin-4-yl)-1,4-dimethyl-1H-pyrrolo[2,3-b]pyridin-5-yl)benzamide] belongs 0.0075 µM; to `CC(C)C(=O)N1C[C@H]2CC[C@@H](C1)[C@@H]2c1cn(C)c2ncc(NC(=O)c3cccc(C#N)c3)c(C(F)(F)F)c12` [Example 77, 3-cyano-N-(3-((1R,5S,8r)-3-isobutyryl-3-azabicyclo[3.2.1]octan-8-yl)-1-methyl-4-(trifluoromethyl)-1H-pyrrolo[2,3-b]pyridin-5-yl)benzamide], 0.0052 µM; to `Cn1cc(C2[C@@H]3CC[C@H]2CN(C(=O)C2CCCC2)C3)c2c(C(F)(F)F)c(NC(=O)c3cccc(C#N)c3)cnc21` (stereo partly drawn) [Example 79, 3-cyano-N-{3-((1R,5S,8r)-3-(cyclopentanecarbonyl)-3-azabicyclo[3.2.1]octan-8-yl]-1-methyl-4-(trifluoromethyl)-1H-pyrrolo[2,3-b]pyridin-5-yl}benzamide], 0.0391 µM.
The result for `CC(C)C(=O)N1CC[C@@H](c2cn(C)c3ncc(NC(=O)c4cccc(C#N)c4F)c(C(F)(F)F)c23)[C@@H](C)C1` [Example 82, 3-cyano-2-fluoro-N-(3-((3R,4R)-1-isobutyryl-3-methylpiperidin-4-yl)-1-methyl-4-(trifluoromethyl)-1H-pyrrolo[2,3-b]pyridin-5-yl)benzamide] reads 0.0051 µM; that for `Cc1c(NC(=O)c2cccc(C#N)c2)cnc2c1c([C@@H]1CCN(C(=O)C(C)C3CC3)C[C@@H]1C)cn2C` (stereo partly drawn) [Example 86, 3-cyano-N-(3-((3R,4R)-1-(2-cyclopropylpropanoyl)-3-methylpiperidin-4-yl)-1,4-dimethyl-1H-pyrrolo[2,3-b]pyridin-5-yl)benzamide], 0.016 µM.
As to `COc1cc(C#N)cc(C(=O)Nc2cnc3c(c([C@@H]4CCN(C(=O)C5CCCC5)[C@@H](C)C4)cn3C)c2C)c1` [Example 90, 3-cyano-N-(3-((2S,4R)-1-(cyclopentanecarbonyl)-2-methylpiperidin-4-yl)-1,4-dimethyl-1H-pyrrolo[2,3-b]pyridin-5-yl)-5-methoxybenzamide], the IC50 stood at 0.0212 µM.
`COc1ccc(C(=O)Nc2cnc3c(c(C4[C@@H]5CC[C@H]4CN(C(=O)C4CCCC4)C5)cn3C)c2C)cc1C#N` (stereo partly drawn) [Example 99, 3-cyano-N-(3-((1R,5S,8r)-3-(cyclopentanecarbonyl)-3-azabicyclo[3.2.1]octan-8-yl)-1,4-dimethyl-1H-pyrrolo[2,3-b]pyridin-5-yl)-4-methoxybenzamide] came in with an IC50 of 0.0211 µM.
The result for `Cc1c(NC(=O)c2cccc(C#N)c2)cnc2c1c([C@@H]1CCN(C(=O)C(C)C)[C@@H](C)C1)cn2C` [Example 113, 3-cyano-N-(3-((2S,4R)-1-isobutyryl-2-methylpiperidin-4-yl)-1,4-dimethyl-1H-pyrrolo[2,3-b]pyridin-5-yl)benzamide] reads 0.0202 µM.

Values taken from patent publication US9670201B2, “Methyl- and trifluoromethyl-substituted pyrrolopyridine modulators of RORC2 and methods of use thereof” (Pfizer Inc., priority 2014, dated 2017).
